Measurements from paper PMC12292992, “Betulinic Acid ω-Triphenylphosphonium Alkyl Esters: Antiproliferative Activities and In Silico Pharmacokinetic Profiles” (Biomedicines, 2025).

Tests used:
[1] = tested on: HCT-15 cells; test: MTT cell viability assay, colorectal carcinoma; assay type: cell-based, human; conditions: for IC50: Homo sapiens
Procedure: (§1) Human cell lines were obtained from the American Type Culture Collection (ATCC, Manassas, VA, USA). Normal lung MRC-5 fibroblasts (ATCC® CCL-171™), SK-MES-1 lung cancer cells (ATCC® HTB-58™), and J82 bladder carcinoma cells (ATCC® HTB-1™) were grown as monolayers in Eagle’s minimum essential medium (MEM) with Earle’s salts, 2 mM L-glutamine, and 1.5 g/L sodium bicarbonate. Gastric epithelial AGS cells (ATCC® CRL-1739™) were grown as monolayers in Ham’s F-12 medium containing 1 mM L-glutamine and 1.5 g/L sodium bicarbonate. Promyelocytic leukemia HL-60 (ATCC® CCL-240™), colorectal adenocarcinoma HCT-15 (ATCC® CCL-225™), metastatic colorectal COLO205 (ATCC® CCL-222™), and breast cancer AU565 (ATCC® CRL-2351™, ER^−-HER2/neu^+) cells were grown in suspension in an RPMI-1640 medium containing 1 mM sodium pyruvate and 2.0 g/L sodium bicarbonate. Human breast cancer MCF-7 (ATCC® HTB-22™, ER^+-HER2/neu^−) and MDA-MB-231 (ATCC® HTB-26™, ER^−-HER2/neu^−) cells were grown as monolayers in DMEM medium. All media were supplemented with 10% heat-inactivated fetal bovine serum (HI-FBS), 100 IU/mL penicillin G, and 100 µg/mL streptomycin. Cells were maintained at 37 °C in a humidified incubator with 5% CO2.
(§2) MRC-5, SK-MES-1, J82, and AGS cells were seeded at a density of 5 × 10^4 cells/mL in 96-well plates. COLO205, HCT-15, MCF-7, MDA-MB-231, and AU565 cells were seeded at 1 × 10^5 cells/mL, while HL-60 cells were plated at 3 × 10^5 cells/mL. A volume of 100 µL of the cell suspension was added to each well. After 24 h, the compounds were added in increasing concentrations (ranging from 0 to 100 µM), and cells were incubated for 24, 48, or 72 h. The compounds were dissolved in DMSO and diluted in complete medium to a final concentration of 0.5% DMSO. Cells treated with 0.5% DMSO in complete medium were used as viability controls (100%). Etoposide (98% purity, Sigma-Aldrich, St. Louis, MO, USA) was used as the reference compound. Each concentration was tested in quadruplicate, and each experiment was performed twice using independent cell preparations. At the end of the incubation period, cell viability was determined using the MTT reduction assay. The results were transformed into percentages relative to controls, and IC50 values were obtained graphically from the dose–response curves. Results are presented as IC50 values ± standard deviation (SD).

[2] = tested on: MCF-7 cells; test: Oxygen consumption assay (Clark-type electrode); assay type: cell-based, human; conditions: for oxygen consumption rate: after oligomycin
Procedure: (§3) Oxygen consumption of the tumor cells was measured polarographically using a Clark-type electrode (Yellow Springs Instruments, Dayton, OH, USA) placed horizontally in a cell of 0.6 mL volume at 25 °C, coupled to a YSI monitor (model 53). The electrode signal was recorded in a computer connected to a DI-148U module with a USB interface. Data were acquired using the Windaq Acquisition Waveform Recorder software v3.36 (DataQ Instruments, Akron, OH, USA). The test medium used contained 150 mM NaCl, 5 mM KCl, and 1 mM Tris-HCl, and pH 7.4. 5 mM glutamine was added with the cells and test compounds. Oxygen consumption was recorded when the cell aliquots (6 × 10^6 cells) were added. Oligomycin (1.5 μg/mL) was added as an inhibitor of the Fo subunit of ATP synthase prior to the incorporation of the compounds under study. FCCP (carbonyl cyanide-p-trifluoromethoxyphenylhydrazone, 50 nM) was used prior to the addition of test compounds as an internal control to calibrate the electrode system and confirm the maximum uncoupling capacity of the cells.

[3] = tested on: AU565 cells; test: Oxygen consumption assay (Clark-type electrode); assay type: cell-based, human; conditions: AU565, 10 and 20 µM
Procedure: as §3

[4] = tested on: HCT-15 cells; test: Annexin V/propidium iodide double staining, flow cytometry; assay type: cell-based, human; conditions: 24 h
Procedure: (§4) The type of cell death induced by the BA-C4-TPP^+Br^− was assessed by flow cytometry, using Annexin V/propidium iodide (AV/PI) double staining, following the instructions of the Annexin V-FITC Apoptosis Detection Kit (Abcam, Cambridge, UK). Cells were cultured at 5 × 10^4 cells/well in 24-well plates and incubated overnight. Afterwards, cells were treated with increasing concentrations of BA-C4-TPP^+Br^− (1, 2.5, 5, or 10 µM for COLO205 and HCT-15 cells) for 24 h. Finally, cells were trypsinized, resuspended in annexin V binding buffer 1X, adding AV and PI, and incubated for 5 min at room temperature, protected from light. Control corresponds to cells incubated with DMSO 1%. Fluorescence of each probe was assessed by flow cytometry (FACSAria®III, BD Biosciences, Franklin Lakes, NJ, USA). Wavelengths used were 488Ex/530Em nm for AV-FITC and 488Ex/575Em nm for PI. Results are expressed as total apoptotic cells (percentage of AV+/PI− and AV+/PI+ cells), necrotic cells (percentage of AV-/PI+ cells), and live cells (percentage of AV-/PI− cells). Cyflogic software (non-commercial 6th version, CyFlo Ltd., Turku, Finland) was used for data processing.

[5] = tested on: COLO205 cells; test: as above; assay type: cell-based, human; conditions: 24 h
Procedure: as §4

[6] = tested on: SK-MES-1 cells; test: MTT cell viability assay, lung cancer; assay type: cell-based; conditions: Homo sapiens, SK-MES-1, 72 h
Procedure: as §1, §2

[7] = tested on: HL-60 cells; test: MTT cell viability assay, leukemia; assay type: cell-based; conditions: Homo sapiens, HL-60, 72 h
Procedure: as §1, §2

[8] = tested on: AGS cells; test: MTT cell viability assay, gastric adenocarcinoma; assay type: cell-based; conditions: Homo sapiens, 72 h
Procedure: as §1, §2

[9] = tested on: COLO205 cells; test: MTT cell viability assay, metastatic colorectal cancer; assay type: cell-based, human; conditions: for IC50: Homo sapiens, COLO 205
Procedure: as §1, §2

[10] = tested on: J82 cells; test: MTT cell viability assay, bladder carcinoma; assay type: cell-based; conditions: Homo sapiens, J82, 72 h
Procedure: as §1, §2

[11] = tested on: MRC-5 normal human lung fibroblasts; test: MTT cell viability assay, normal lung fibroblasts; assay type: cell-based; conditions: MRC5, MRC-5, 72 h
Procedure: as §1, §2

SMILES: C=C(C)[C@@H]1CC[C@]2(C(=O)OCCCC[P+](c3ccccc3)(c3ccccc3)c3ccccc3)CC[C@]3(C)[C@H](CC[C@@H]4[C@@]5(C)CC[C@H](O)C(C)(C)[C@@H]5CC[C@]43C)[C@@H]12 [BA-C4-TPP^+Br^−, 4-Triphenylphosphoniobutyl 3β-hydroxylup-20(29)-en-28-oate bromide]
- increase in potency compared to non-modified BA scaffold ([1]; HCT-15 cells at 72 h): approximately 7 fold
- IC50 ([1]; HCT-15, 24 h): 1460 ± 170 nM
- IC50 ([1]; HCT-15, 48 h): 610 ± 160 nM
- IC50 ([1]; HCT-15, 72 h): 520 ± 120 nM
- oxygen consumption rate ([2]; MCF-7, 10 µM compound): 12.57 nmol O2 min^−1
- oxygen consumption rate ([2]; MCF-7, 20 µM compound): 21.66 nmol O2 min^−1
- mitochondrial uncoupling effect ([2]; MCF-7, 10 and 20 µM): concentration-dependent
- mitochondrial uncoupling effect [3]: the strongest uncoupler in AU565 cells
- apoptosis induction ([4]; HCT-15, 2.5 μM): 12%
- necrosis induction ([4]; HCT-15, 2.5 μM): 7%
- necrotic cell death ([4]; HCT-15, 10 μM): ~30%
- apoptosis induction ([5]; COLO205, 1 μM): ~14%
- apoptosis induction ([5]; COLO205, 2.5 μM): ~34%
- necrotic cell death ([5]; COLO205, 5 μM): 15%
- necrotic cell death ([5]; COLO205, initial concentration (1 μM)): 5%
- IC50 [6]: 320 ± 80 nM
- IC50 [7]: 220 ± 40 nM
- IC50 [8]: 350 ± 20 nM
- increase in potency compared to non-modified BA scaffold ([9]; COLO205 cells at 72 h): ~264 fold
- IC50 ([9]; COLO205, 24 h): 880 ± 220 nM
- IC50 ([9]; COLO205, 48 h): 450 ± 90 nM
- IC50 ([9]; COLO205, 72 h): 130 ± 10 nM
- IC50 [10]: 840 ± 20 nM
- IC50 [11]: 210 ± 10 nM
